According to patent US5786364A, “Bicyclic isothiourea derivatives useful in therapy” (priority 1995, dated 1998):
Like-named read-outs stand apart in the source and are kept apart here. Each block holds one compound with its values, some of them ahead of it.

Assays:
Type in all cases: biochemical
[1] = target: T1, neuronal nitric oxide synthase (Rattus norvegicus, UniProt P29476); experiment: Screen A: screen for neuronal nitric oxide synthase inhibiting activity (conversion of 3H-L-arginine to 3H-L-citrulline)
T1 construct: Enzyme was isolated from rat hippocampus or cerebellum; from tissue; host or cells: hippocampus or cerebellum of male Sprague-Dawley rat, 20,000 g supernatant
T1 sequence (P29476 whole entry): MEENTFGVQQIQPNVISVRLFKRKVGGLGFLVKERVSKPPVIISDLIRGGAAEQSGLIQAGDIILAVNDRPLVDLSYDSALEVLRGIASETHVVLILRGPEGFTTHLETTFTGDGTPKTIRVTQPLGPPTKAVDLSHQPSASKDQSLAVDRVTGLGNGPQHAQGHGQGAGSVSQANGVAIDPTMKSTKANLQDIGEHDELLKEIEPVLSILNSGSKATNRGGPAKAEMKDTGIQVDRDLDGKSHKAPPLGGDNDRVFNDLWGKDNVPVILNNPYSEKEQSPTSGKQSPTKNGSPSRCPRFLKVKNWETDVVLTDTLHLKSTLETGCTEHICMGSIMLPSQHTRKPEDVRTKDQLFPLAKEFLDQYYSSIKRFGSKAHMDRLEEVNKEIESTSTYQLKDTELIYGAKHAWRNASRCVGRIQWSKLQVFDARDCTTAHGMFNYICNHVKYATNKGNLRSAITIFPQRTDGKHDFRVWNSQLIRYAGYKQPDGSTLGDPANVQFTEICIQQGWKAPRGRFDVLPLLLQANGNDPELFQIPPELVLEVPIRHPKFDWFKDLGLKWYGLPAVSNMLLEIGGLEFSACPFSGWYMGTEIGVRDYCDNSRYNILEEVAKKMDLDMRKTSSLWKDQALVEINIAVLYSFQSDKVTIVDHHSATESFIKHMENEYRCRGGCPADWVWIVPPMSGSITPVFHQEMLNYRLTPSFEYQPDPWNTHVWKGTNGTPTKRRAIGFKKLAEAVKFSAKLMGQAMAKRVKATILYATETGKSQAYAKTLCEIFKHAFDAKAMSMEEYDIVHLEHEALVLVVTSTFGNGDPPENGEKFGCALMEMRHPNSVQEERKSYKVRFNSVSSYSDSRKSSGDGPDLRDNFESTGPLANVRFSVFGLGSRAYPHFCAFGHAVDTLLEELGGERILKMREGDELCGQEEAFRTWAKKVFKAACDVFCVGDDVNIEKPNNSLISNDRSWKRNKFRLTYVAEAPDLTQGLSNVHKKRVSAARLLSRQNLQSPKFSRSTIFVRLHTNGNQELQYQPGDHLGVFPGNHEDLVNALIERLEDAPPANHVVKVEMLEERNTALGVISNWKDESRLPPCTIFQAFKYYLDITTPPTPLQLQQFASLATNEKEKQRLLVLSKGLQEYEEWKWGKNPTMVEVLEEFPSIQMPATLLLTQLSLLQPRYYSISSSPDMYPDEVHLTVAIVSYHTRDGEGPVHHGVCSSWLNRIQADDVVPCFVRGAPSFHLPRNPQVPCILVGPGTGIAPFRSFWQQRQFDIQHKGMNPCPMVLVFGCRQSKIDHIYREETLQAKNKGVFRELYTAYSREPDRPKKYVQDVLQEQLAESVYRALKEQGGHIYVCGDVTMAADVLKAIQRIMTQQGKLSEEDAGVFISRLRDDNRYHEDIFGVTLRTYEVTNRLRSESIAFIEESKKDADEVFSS

[2] = target: T2, inducible nitric oxide synthase (Homo sapiens, UniProt P35228); experiment: Screen B: screen for inducible nitric oxide synthase inhibiting activity (DLD-1 cell lysate)
T2 construct: Enzyme is prepared, after induction, from the cultured human colorectal carcinoma cell line, DLD-1; endogenous in cells; host or cells: DLD-1 cells (European Collection of Animal Cell Cultures), induced with IL-1, IFN-gamma, IL-6 and TNF-alpha; cell lysate

[3] = target: T3, endothelial nitric oxide synthase (Homo sapiens, UniProt P29474); experiment: Screen C: screen for endothelial nitric oxide synthase inhibiting activity (HUVEC enzyme)
T3 construct: Enzyme may be isolated from human umbilical vein endothelial cells (HUVECs); host or cells: human umbilical vein endothelial cells (HUVECs)
T3 sequence (P29474 2-1203): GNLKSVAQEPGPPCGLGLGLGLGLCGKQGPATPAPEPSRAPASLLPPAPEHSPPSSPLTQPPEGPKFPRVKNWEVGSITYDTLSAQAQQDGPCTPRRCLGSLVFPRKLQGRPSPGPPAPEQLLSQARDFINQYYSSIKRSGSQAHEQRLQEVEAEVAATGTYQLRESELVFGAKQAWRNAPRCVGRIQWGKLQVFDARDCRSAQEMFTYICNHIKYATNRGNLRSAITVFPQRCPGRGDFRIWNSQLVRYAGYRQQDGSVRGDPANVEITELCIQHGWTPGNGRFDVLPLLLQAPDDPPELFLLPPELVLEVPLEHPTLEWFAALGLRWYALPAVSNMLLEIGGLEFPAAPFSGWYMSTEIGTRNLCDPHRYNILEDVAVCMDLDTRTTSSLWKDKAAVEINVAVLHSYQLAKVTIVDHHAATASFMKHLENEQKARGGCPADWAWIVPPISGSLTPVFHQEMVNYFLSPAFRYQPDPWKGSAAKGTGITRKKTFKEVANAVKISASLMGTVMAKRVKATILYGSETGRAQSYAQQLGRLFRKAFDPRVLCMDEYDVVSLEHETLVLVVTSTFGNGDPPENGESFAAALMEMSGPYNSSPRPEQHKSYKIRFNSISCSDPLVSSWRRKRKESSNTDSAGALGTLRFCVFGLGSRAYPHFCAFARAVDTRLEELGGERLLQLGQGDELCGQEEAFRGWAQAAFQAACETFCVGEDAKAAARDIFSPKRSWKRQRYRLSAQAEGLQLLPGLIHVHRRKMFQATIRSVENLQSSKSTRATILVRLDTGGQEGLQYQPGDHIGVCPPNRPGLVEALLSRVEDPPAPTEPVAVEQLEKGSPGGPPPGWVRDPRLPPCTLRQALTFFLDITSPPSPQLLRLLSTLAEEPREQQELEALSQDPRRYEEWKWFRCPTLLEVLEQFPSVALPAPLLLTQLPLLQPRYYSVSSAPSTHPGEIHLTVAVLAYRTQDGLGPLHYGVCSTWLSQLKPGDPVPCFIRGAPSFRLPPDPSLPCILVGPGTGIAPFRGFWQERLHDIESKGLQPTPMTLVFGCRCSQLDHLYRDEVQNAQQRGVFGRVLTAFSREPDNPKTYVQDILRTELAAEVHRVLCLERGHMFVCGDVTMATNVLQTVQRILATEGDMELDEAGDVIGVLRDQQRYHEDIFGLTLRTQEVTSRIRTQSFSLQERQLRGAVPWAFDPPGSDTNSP

IC50 ([1]; neuronal isoform, rat hippocampus or cerebellum supernatant, read-out: IC50 (Screen A)): < 10 µM
SMILES: CCSC(=N)Nc1ccc2c(c1)CC(N(C)Cc1cccc(Cl)c1)C2 (stereo not shown) [Example 2, N-5-(2-(((3-chlorophenyl)methyl)(methyl)amino)indanyl)carbamimidothioic acid, ethyl ester]

IC50 ([2]; inducible isoform, DLD-1 cell lysate, standard to verify the procedure, read-out: IC50 (50% inhibitory concentration) (Screen B standard)): 10 µM
SMILES: N=C(N)NN [Aminoguanidine, reference compound]

inhibition at 1 µM ([3]; at a concentration of 1 μM, typical experiment, read-out: inhibition of nitric oxide synthase (Screen C reference standard)): 70 to 90%
inhibition at 1 µM ([1]; at a concentration of 1 μM, cerebellar supernatant, typical experiment, read-out: inhibition of nitric oxide synthase (Screen A reference standard)): 80%
SMILES: NC(=NCCC[C@H](N)C(=O)O)N[N+](=O)[O-] [N-nitro-L-arginine, reference compound]

SMILES: CCSC(=N)Nc1ccc2c(c1)CNCC2 [Example 1, N-(1,2,3,4-tetrahydroisoquinolin-7-yl)carbamimidothioic acid ethyl ester]
IC50 in Screen C relative to that obtained in Screen A (selectivity) ([3]; Screen C (endothelial isoform) IC50 / Screen A (neuronal) IC50): more than 10 times
IC50 [1]: < 10 µM
IC50 in Screen B relative to that obtained in Screen A (selectivity) ([2]; Screen B (macrophage isoform) IC50 / Screen A (neuronal) IC50): more than 10 times
